Experimental data reported in patent US10792289B2 (Horizon Orphan LLC, priority 2009, dated 2020).

System: stable CF patients
Test: Phase 2 study: pulmonary function (FEV1, FVC, FEF 25-75)
Type: in vivo, human
Set-up: FEF 25-75, Median / FEV1, Day 14, Mean / FEF 25-75, Mean: unit not given here; FEV1, Day 1, Mean / FEV1, Day 1, Median / FEV1, Day 14, Median / FEV1, Day 28, Mean / FEV1, Day 28, Median: unit: L
Conditions: for Increase in FEF 25-75 / Increase in FEV1: median Day 1 to Day 28; for FEV1, Day 1, Mean / FEV1, Day 1, Median / FEV1, Day 14, Mean / FEV1, Day 14, Median / FEV1, Day 28, Mean / FEV1, Day 28, Median / FEV1, Percent Change from Baseline to Day 14, Mean / FEV1, Percent Change from Baseline to Day 14, Median / FEV1, Percent Change from Baseline to Day 28, Mean / FEV1, Percent Change from Baseline to Day 28, Median / % predicted FEV1, Mean / % predicted FEV1, Median: MITT population
Experimental: The following dosage regimens (as nebulizer loaded doses) were evaluated: 120 mg QD (daily); 240 mg QD (daily); and 240 mg BID (twice daily).
Efficacy endpoints including clinical endpoints, pulmonary function tests, and additional microbiological parameters were assessed as change from Day 1 to subsequent visits where the endpoint data was collected. Time to need for intravenous/oral/inhaled anti-pseudomonal antimicrobials were assessed from Day 1 until final visit using survival analysis. The primary population for efficacy analysis was the EE population, but efficacy endpoints were also analyzed using the MITT population.
Changes in FEV1 (forced expiratory volume in 1 second), FVC (forced vital capacity) and FEF 25-75 (forced expiratory flow 25-75%) from Day 1 to all subsequent visits were determined for patients. Tables 26 and 27 summarize the results for FEV1 measurements in EE and MITT populations, respectively. FIGS. 7 and 8 show graphs of percent change in FEV1 (L) and percent change in FEV1(L) vs. placebo, respectively, at Day 28 for the EET population treated with placebo, 120 mg QD, 240 mg QD, or 240 mg BID. […] Tables 28 and 29 summarize the results for predicted FEVI measurements in EE and MITT populations, respectively. Tables 30 and 31 summarize results for FEF 25-75 measurements in EE and MITT populations, respectively.

[1] = EE, 240 mg BID, Day 1 (baseline)
[2] = Day 1 (baseline), combined 240 mg QD and BID
[3] = Day 14, combined 240 mg QD and BID
[4] = Day 28, combined 240 mg QD and BID
[5] = MITT, 240 mg BID, Day 1 (baseline)

For C[C@H]1COc2c(N3CCN(C)CC3)c(F)cc3c(=O)c(C(=O)O)cn1c23 [Levofloxacin, levofloxacin], the “FEF 25-75, Median” value (EE population, Day 28, combined 240 mg QD and BID) was 0.97, the “FEF 25-75, Median” value (EE, 120 mg QD, Day 1) was 0.98 and the “FEV1, median” value (EE, 120 mg QD, Day 1) was 1.87 L. For the same molecule, the “FEF 25-75, Median” value (EE, 120 mg QD, Day 28) was 1.03, the “FEV1, median” value (EE, 120 mg QD, Day 28) was 1.91 L and the “Increase in FEF 25-75” value (EE, 120 mg QD) was “approximately 5%”. The “Increase in FEV1” value (EE, 120 mg QD) was “approximately 2%”, the “FEF 25-75, Median” value [1] was 0.68 and the “FEV1, median” value [1] was 1.70 L. For the same molecule, the “FEF 25-75, Median” value (EE, 240 mg BID, Day 28) was 0.78, the “FEV1, median” value (EE, 240 mg BID, Day 28) was 1.79 L and the “Increase in FEF 25-75” value (EE, 240 mg BID) was “approximately 15%”. The “Increase in FEV1” value (EE, 240 mg BID) was “approximately 5%”, the “FEF 25-75, Median” value (EE, 240 mg QD, Day 1) was 1.10 and the “FEV1, median” value (EE, 240 mg QD, Day 1) was 2.02 L. For the same molecule, the “FEF 25-75, Median” value (EE, 240 mg QD, Day 28) was 1.15, the “FEV1, median” value (EE, 240 mg QD, Day 28) was 2.15 L and the “Increase in FEF 25-75” value (EE, 240 mg QD) was “approximately 4%”. The “Increase in FEV1” value (EE, 240 mg QD) was “approximately 6%”, the “Largest difference for FEF 25-75, placebo vs levofloxacin” value (EE, Day 14) was 0.25 L and the “Largest difference for FEV1, placebo vs levofloxacin” value (shortened to “Largest difference for FEV1, placebo”) (EE, Day 14) was 0.16 L. The “Largest difference for FEF 25-75, placebo vs levofloxacin” value (EE, Day 28) was 0.21 L, the “Largest difference for FEV1, placebo” value (EE, Day 28) was 0.24 L and the “FEV1, Day 1, Mean” value (120 mg QD) was 1.95. The “FEV1, Day 1, Median” value (120 mg QD) was 1.83, the “FEV1, Day 14, Mean” value (120 mg QD) was 1.97 and the “FEV1, Day 14, Median” value (120 mg QD) was 1.79. For the same molecule, the “FEV1, Day 28, Mean” value (120 mg QD) was 1.99, the “FEV1, Day 28, Median” value (120 mg QD) was 1.83 and the “FEV1, Percent Change from Baseline to Day 14, Mean” value (120 mg QD) was 1.87%. The “FEV1, Percent Change from Baseline to Day 14, Median” value (120 mg QD) was 0.56%, the “FEV1, Percent Change from Baseline to Day 28, Mean” value (120 mg QD) was 1.92% and the “FEV1, Percent Change from Baseline to Day 28, Median” value (120 mg QD) was 1.60%. The “FEV1, Day 1, Mean” value (240 mg BID) was 1.88, the “FEV1, Day 1, Median” value (240 mg BID) was 1.70 and the “FEV1, Day 14, Mean” value (240 mg BID) was 2.04. The “FEV1, Day 14, Median” value (240 mg BID) was 1.90, the “FEV1, Day 28, Mean” value (240 mg BID) was 1.93 and the “FEV1, Day 28, Median” value (240 mg BID) was 1.82. For the same molecule, the “FEV1, Percent Change from Baseline to Day 14, Mean” value (240 mg BID) was 9.34%, the “FEV1, Percent Change from Baseline to Day 14, Median” value (240 mg BID) was 7.51% and the “FEV1, Percent Change from Baseline to Day 28, Mean” value (240 mg BID) was 5.93%. For the same molecule, the “FEV1, Percent Change from Baseline to Day 28, Median” value (240 mg BID) was 3.55%, the “FEV1, Day 1, Mean” value (240 mg QD) was 2.05 and the “FEV1, Day 1, Median” value (240 mg QD) was 1.90. The “FEV1, Day 14, Mean” value (240 mg QD) was 2.12, the “FEV1, Day 14, Median” value (240 mg QD) was 2.04 and the “FEV1, Day 28, Mean” value (240 mg QD) was 2.09. For the same molecule, the “FEV1, Day 28, Median” value (240 mg QD) was 2.10, the “FEV1, Percent Change from Baseline to Day 14, Mean” value (240 mg QD) was 3.81% and the “FEV1, Percent Change from Baseline to Day 14, Median” value (240 mg QD) was 1.92%. The “FEV1, Percent Change from Baseline to Day 28, Mean” value (240 mg QD) was 2.35%, the “FEV1, Percent Change from Baseline to Day 28, Median” value (240 mg QD) was 1.28% and the “FEV1, Day 1, Mean” value (Combined 240 mg QD and BID) was 1.96. For the same molecule, the “FEV1, Day 1, Median” value (Combined 240 mg QD and BID) was 1.80, the “FEV1, Day 14, Mean” value (Combined 240 mg QD and BID) was 2.08 and the “FEV1, Day 14, Median” value (Combined 240 mg QD and BID) was 1.97. The “FEV1, Day 28, Mean” value (Combined 240 mg QD and BID) was 2.01, the “FEV1, Day 28, Median” value (Combined 240 mg QD and BID) was 1.95 and the “FEV1, Percent Change from Baseline to Day 14, Mean” value (Combined 240 mg QD and BID) was 6.61%. The “FEV1, Percent Change from Baseline to Day 14, Median” value (Combined 240 mg QD and BID) was 3.94%, the “FEV1, Percent Change from Baseline to Day 28, Mean” value (Combined 240 mg QD and BID) was 4.14% and the “FEV1, Percent Change from Baseline to Day 28, Median” value (Combined 240 mg QD and BID) was 2.50%. The “% predicted FEV1, Mean” value (Day 1 (baseline), 120 mg QD) was 52.9%, the “% predicted FEV1, Median” value (Day 1 (baseline), 120 mg QD) was 53.0% and the “% predicted FEV1, Mean” value (Day 1 (baseline), 240 mg BID) was 48.8%. For the same molecule, the “% predicted FEV1, Median” value (Day 1 (baseline), 240 mg BID) was 46.0%, the “% predicted FEV1, Mean” value (Day 1 (baseline), 240 mg QD) was 55.4% and the “% predicted FEV1, Median” value (Day 1 (baseline), 240 mg QD) was 56.0%. The “% predicted FEV1, Mean” value [2] was 52.0%, the “% predicted FEV1, Median” value [2] was 51.0% and the “% predicted FEV1, Mean” value (Day 14, 120 mg QD) was 53.9%. For the same molecule, the “% predicted FEV1, Median” value (Day 14, 120 mg QD) was 53.0%, the “% predicted FEV1, Mean” value (Day 14, 240 mg BID) was 52.1% and the “% predicted FEV1, Median” value (Day 14, 240 mg BID) was 49.56%. The “% predicted FEV1, Mean” value (Day 14, 240 mg QD) was 57.1%, the “% predicted FEV1, Median” value (Day 14, 240 mg QD) was 61.0% and the “% predicted FEV1, Mean” value [3] was 54.6%. The “% predicted FEV1, Median” value [3] was 52.0%, the “% predicted FEV1, Mean” value (Day 28, 120 mg QD) was 54.1% and the “% predicted FEV1, Median” value (Day 28, 120 mg QD) was 50.0%. The “% predicted FEV1, Mean” value (Day 28, 240 mg BID) was 50.8%, the “% predicted FEV1, Median” value (Day 28, 240 mg BID) was 49.0% and the “% predicted FEV1, Mean” value (Day 28, 240 mg QD) was 56.7%. The “% predicted FEV1, Median” value (Day 28, 240 mg QD) was 54.0%, the “% predicted FEV1, Mean” value [4] was 53.8% and the “% predicted FEV1, Median” value [4] was 53.5%. For the same molecule, the “FEF 25-75, Median” value [5] was 0.68, the “FEV1, median” value [5] was 1.70 L and the “FEF 25-75, Median” value (MITT, 240 mg BID, Day 28) was 0.82. The “FEV1, median” value (MITT, 240 mg BID, Day 28) was 1.82 L, the “Increase in FEF 25-75” value (MITT, 240 mg BID) was “approximately 20%” and the “Increase in FEV1” value (MITT, 240 mg BID) was “approximately 7%”. The “FEF 25-75, Median” value (MITT, 240 mg QD, Day 1) was 1.09, the “FEV1, median” value (MITT, 240 mg QD, Day 1) was 1.90 L and the “FEF 25-75, Median” value (MITT, 240 mg QD, Day 28) was 1.12. The “FEV1, median” value (MITT, 240 mg QD, Day 28) was 2.10 L, the “Increase in FEF 25-75” value (MITT, 240 mg QD) was “approximately 3%” and the “Increase in FEV1” value (MITT, 240 mg QD) was “approximately 10%”. For the same molecule, the “Largest difference for FEF 25-75, placebo vs levofloxacin” value (MITT, Day 14) was 0.27 L, the “Largest difference for FEV1, placebo” value (MITT, Day 14) was 0.12 L and the “Largest difference for FEF 25-75, placebo vs levofloxacin” value (MITT, Day 28) was 0.21 L. The “Largest difference for FEV1, placebo” value (MITT, Day 28) was 0.25 L.
